Source: ChEMBL document CHEMBL5247590, “Novel nitrogen mustard-artemisinin hybrids with potent anti-leukemia action through DNA damage and activation of GPx” (Eur J Med Chem, 2022)
Calls of active or inactive are those of the source. No cut-off for these calls is given here.

Assays:
CCRF-CEM [1] = assay: Induction of apoptosis in human CCRF-CEM cells assessed as early apoptotic cells at 4 uM incubated for 48 hrs by Annexin V-FITC/PI staining based flow cytometry (reference value: 13.4 %); format: functional
CCRF-CEM [2] = assay: Induction of apoptosis in human CCRF-CEM cells assessed as necrotic cells at 0.5 uM incubated for 48 hrs by Annexin V-FITC/PI staining based flow cytometry (reference value: 0.0 %); format: functional
CCRF-CEM [3] = assay: Antiproliferative activity against human CCRF-CEM cells assessed as cell growth inhibition incubated for 72 hrs by MTT assay; format: functional, cell-based
[4] = Selectivity index, ratio of IC50 for human L02 cells to IC50 for human CCRF-CEM cells; format: toxicity; conditions: L02 cells and CCRF-CEM cells, read-out: Selectivity Index
CCRF-CEM [5] = assay: Induction of apoptosis in human CCRF-CEM cells assessed as early apoptotic cells at 1 uM incubated for 48 hrs by Annexin V-FITC/PI staining based flow cytometry (reference value: 13.4 %); format: functional
CCRF-CEM [6] = assay: Inhibition of cell proliferation in human CCRF-CEM cells assessed as decrease in cell number upto 4 uM incubated for 12 hrs by cell counter analysis; format: functional, cell-based
CCRF-CEM [7] = assay: Induction of cell cycle arrest in human CCRF-CEM cells assessed as cell accumulation at S phase at 2 uM incubated for 24 hrs by PI staining based flow cytometry analysis (reference value: 15.5 %); format: functional
CCRF-CEM [8] = assay: Downregulation of ROS level in human CCRF-CEM cells assessed as increase in GPx activity at 0.125 to 2 uM incubated for 12 hrs in presence of NADPH by […]; format: functional, cell-based; conditions: dose 0.125-2 µM
CCRF-CEM [9] = assay: Induction of cell cycle arrest in human CCRF-CEM cells assessed as cell accumulation at G2/M phase at 1 uM incubated for 24 hrs by PI staining based flow cytometry analysis (reference value: 61.3 %); format: functional
CCRF-CEM [10] = assay: Downregulation of ROS level in human CCRF-CEM cells assessed as H2O2 level at 1 uM incubated for 12 hrs in presence of NADPH by absorbance based assay; format: functional, cell-based
HCT-116 = assay: Antiproliferative activity against human HCT-116 cells assessed as cell growth inhibition incubated for 72 hrs by MTT assay; format: functional, cell-based; conditions: HCT-116, 72 h
CCRF-CEM [11] = assay: Induction of apoptosis in human CCRF-CEM cells assessed as nuclear condensation upto 4 uM incubated for 48 hrs by Hoechst staining based fluorescent microscopic analysis; format: functional, cell-based
CCRF-CEM [12] = assay: Induction of apoptosis in human CCRF-CEM cells assessed as early apoptotic cells at 0.5 uM incubated for 48 hrs by Annexin V-FITC/PI staining based flow cytometry (reference value: 13.4 %); format: functional
CCRF-CEM [13] = assay: Induction of apoptosis in human CCRF-CEM cells assessed downregulation of Bcl-2 expression at 0.25 to 0.5 uM incubated for 48 hrs by Western blot analysis; format: functional, cell-based; conditions: dose 0.25-0.5 µM
CCRF-CEM [14] = assay: Induction of apoptosis in human CCRF-CEM cells assessed as early apoptotic cells at 2 uM incubated for 48 hrs by Annexin V-FITC/PI staining based flow cytometry (reference value: 13.4 %); format: functional
CCRF-CEM [15] = assay: Induction of cell cycle arrest in human CCRF-CEM cells assessed as cell accumulation at G1 phase at 1 uM incubated for 24 hrs by PI staining based flow cytometry analysis (reference value: 24.1 %); format: functional
CCRF-CEM [16] = assay: Antiproliferative activity against human CCRF-CEM cells assessed as cell growth inhibition at 0.1875 to 20 uM by CCK8 assay; format: functional, cell-based; conditions: dose 0.1875-20 µM, time 24-48 hrs, TDE = time-dependent effect
CCRF-CEM [17] = assay: Downregulation of ROS level in human CCRF-CEM cells at 0.125 to 2 uM incubated for 12 hrs by DCFH-DA probe based flow cytometry analysis; format: functional, cell-based; conditions: dose 0.125-2 µM
CCRF-CEM [18] = assay: Induction of cell cycle arrest in human CCRF-CEM cells assessed as cell accumulation at G1 phase at 0.5 uM incubated for 24 hrs by PI staining based flow cytometry analysis (reference value: 24.1 %); format: functional
CCRF-CEM [19] = assay: Induction of apoptosis in human CCRF-CEM cells assessed as late apoptotic cells at 1 uM incubated for 48 hrs by Annexin V-FITC/PI staining based flow cytometry (reference value: 3.2 %); format: functional
CCRF-CEM [20] = assay: Induction of apoptosis in human CCRF-CEM cells assessed as late apoptotic cells at 0.5 uM incubated for 48 hrs by Annexin V-FITC/PI staining based flow cytometry (reference value: 3.2 %); format: functional
CCRF-CEM [21] = assay: Induction of cell cycle arrest in human CCRF-CEM cells assessed as cell accumulation at G2/M phase at 0.5 uM incubated for 24 hrs by PI staining based flow cytometry analysis (reference value: 61.3 %); format: functional
U-118-MG = assay: Antiproliferative activity against human U-118-MG cells assessed as cell growth inhibition incubated for 72 hrs by MTT assay; format: functional, cell-based
CCRF-CEM [22] = assay: Induction of apoptosis in human CCRF-CEM cells assessed as nuclear collapse upto 4 uM incubated for 48 hrs by Hoechst staining based fluorescent microscopic analysis; format: functional, cell-based
CCRF-CEM [23] = assay: Induction of apoptosis in human CCRF-CEM cells assessed as necrotic cells at 4 uM incubated for 48 hrs by Annexin V-FITC/PI staining based flow cytometry (reference value: 0.0 %); format: functional

## C[C@@H]1CC[C@H]2[C@@H](C)C(OC(=O)c3ccc(N(CCCl)CCCl)cc3)O[C@@H]3O[C@@]4(C)CC[C@@H]1[C@]32OO4 (stereo not given in full)
CCRF-CEM [1]
  Activity: 37.3%
CCRF-CEM [2]
  Activity: 0.1%
CCRF-CEM [3]
  IC50: 0.895 µM
[4]
  selectivity ratio: 44.7
CCRF-CEM [5]
  Activity: 26.7%
CCRF-CEM [6]
  inhibition: Active
CCRF-CEM [7]
  Activity: 6.5%
CCRF-CEM [8]
  Activity: Active
CCRF-CEM [9]
  Activity: 47.6%
CCRF-CEM [10]
  Activity: inactive
HCT-116
  IC50: 3.1 µM
CCRF-CEM [11]
  Activity: Active
CCRF-CEM [12]
  Activity: 78.6%
CCRF-CEM [13]
  Activity: Active
CCRF-CEM [14]
  Activity: 33.4%
CCRF-CEM [15]
  Activity: 18.2%
CCRF-CEM [16]
  Activity: Tde
CCRF-CEM [17]
  Activity: Dose-Dependent Effect
CCRF-CEM [18]
  Activity: 22.8%
CCRF-CEM [19]
  Activity: 12.8%
CCRF-CEM [20]
  Activity: 6.9%
CCRF-CEM [21]
  Activity: 70.8%
U-118-MG
  IC50: > 40 µM
CCRF-CEM [22]
  Activity: Active
CCRF-CEM [23]
  Activity: 0.1%
